Results reported in ChEMBL document CHEMBL5143592, “Angiogenesis-Inhibitory Piperidine Alkaloids from the Leaves of Microcos paniculata” (J Nat Prod, 2022).

Tests used:
[1] = Cytotoxicity against HUVEC cells assessed as cell viability incubated for 24 hrs by MTT assay; type: toxicity, cell-based; settings: human, read-out: Activity
HUVEC = experiment: Anti-angiogenesis activity against HUVEC cells assessed as inhibition of tube formation at 2.5 to 20 uM measured after 3 hrs by fluorescence microscopic analysis; type: functional, cell-based; settings: Homo sapiens, dose 2.5-20 µM, DDE = dose-dependent effect

**Q.** For `CCCC[C@@H](O)[C@H](O)/C=C/C=C/[C@@H]1CC[C@@H](O)[C@H](C)N1`, which viability at 24 h [1] is on record?
**A.** The viability at 24 h was no less than 90%.

**Q.** What about the Activity (HUVEC) of the same compound?
**A.** The Activity was “Dde”.
